Converted amounts (≈) assume the structure as drawn.
Test system: Staphylococcus aureus (Isolate ID ATCC 29213)
Experiment: Bacterial assay: MIC by broth microdilution or agar dilution (CLSI), S. aureus ATCC 29213
Type: cell-based
Details: for MIC: Staphylococcus aureus, ATCC29213, read-out: S. aureus MIC (μg/mL) Activity Range, S. aureus (ATCC29213); for S. aureus MIC (μg/mL) Activity Range: S. aureus (ATCC29213)
Method: Compounds are tested for antimicrobial activity by susceptibility testing in liquid or on solid media. Minimum inhibitory concentrations (MICs) for compounds against each strain are determined by the broth microdilution or agar dilution method according to the guidelines of the Clinical Laboratories and Standards Institute, formerly the National Committee for Clinical Laboratory Standards (Clinical Laboratories and Standards Institute. Methods for Dilution Antimicrobial Susceptibility Tests for Bacteria That Grow Aerobically; Approved Standard—Seventh Edition. Document M7-A7. CLSI, Wayne, Pa., 2006; Clinical Laboratories and Standards Institute). The bacterial strains tested include S. aureus (Staphylococcus aureus (Isolate ID ATCC 29213)) and an FtsZ mutant of this isolate (FtsZ-G196A Staphylococcus aureus (Isolate ID GG/190723/sa/1.2)). Compound MICs were determined to be in the following activity ranges “A” activity≦0.25 μg/mL; “B” activity>0.25 μg/mL-1.0 μg/mL; “C” activity>1.0 μg/mL-16 μg/mL; “D” activity>16 μg/mL and ND=not determined. The bracketed entries indicate entantiomer(s) and their activity.

| Structure (SMILES) | MIC | S. aureus MIC (μg/mL) Activity Range |
| --- | --- | --- |
| NC(=O)c1c(F)ccc(OC(CO)c2csc(-c3ccc(Cl)cc3)n2)c1F (stereo not shown) [Compound 258, 3-(1-(2-(4-chlorophenyl)thiazol-4-yl)-2-hydroxyethoxy)-2,6-difluorobenzamide] | 1 to 16 µg/mL (≈ 2.43 to 38.9 µM) |  |
| N#Cc1ccc(-c2nc(C(CO)Oc3ccc(F)c(C(N)=O)c3F)oc2Br)cc1 (stereo not shown) [Compound 80, 3-(1-(5-bromo-4-(4-cyanophenyl)oxazol-2-yl)-2-hydroxyethoxy)-2,6-difluorobenzamide] | 1 to 16 µg/mL (≈ 2.15 to 34.5 µM) |  |
| NC(=O)c1c(F)ccc(OC(COC(=O)Nc2nnn[nH]2)c2nc(-c3ccc(C(F)(F)F)cc3)c(Br)o2)c1F (stereo not shown) [Compound 177, 2-(5-bromo-4-(4-(trifluoromethyl)phenyl)oxazol-2-yl)-2-(3-carbamoyl-2,4-difluorophenoxy)ethyl 1H-tetrazol-5-ylcarbamate] | > 16 µg/mL |  |
| CS(=O)(=O)OCC(Oc1ccc(F)c(C(N)=O)c1F)c1nc(-c2ccc(C(F)(F)F)cc2)c(Cl)o1 (stereo not shown) [Compound 45, 2-(3-carbamoyl-2,4-difluorophenoxy)-2-(5-chloro-4-(4-(trifluoromethyl)phenyl)oxazol-2-yl)ethyl methanesulfonate] | 1 to 16 µg/mL |  |
| NC(=O)c1c(F)ccc(OC(CO)c2nc(-c3ccccc3F)co2)c1F (stereo not shown) [Compound 223, 2,6-difluoro-3-(1-(4-(2-fluorophenyl)oxazol-2-yl)-2-hydroxyethoxy)benzamide] | > 16 µg/mL |  |
| NC(=O)c1c(F)ccc(OC(CNC(=O)OCc2ccccc2)c2nc(-c3ccc(C(F)(F)F)cc3)co2)c1F (stereo not shown) [Compound 276, benzyl (2-(3-carbamoyl-2,4-difluorophenoxy)-2-(4-(4-(trifluoromethyl)phenyl)oxazol-2-yl)ethyl)carbamate] | 1 to 16 µg/mL (≈ 1.78 to 28.5 µM) |  |
| COCCNC(=O)OCC(Oc1ccc(F)c(C(N)=O)c1F)c1nc(-c2ccc(C(F)(F)F)cc2)c(Br)o1 (stereo not shown) [Compound 164, 2-(5-bromo-4-(4-(trifluoromethyl)phenyl)oxazol-2-yl)-2-(3-carbamoyl-2,4-difluorophenoxy)ethyl (2-methoxyethyl)carbamate] | 0.25 to 1 µg/mL (≈ 0.411 to 1.64 µM) |  |
| CC(Oc1ccc(F)c(C(N)=O)c1F)c1nc(Br)c(Cl)s1 (stereo not shown) [Compound 24] | 1 to 16 µg/mL (≈ 2.51 to 40.2 µM) |  |
| NC(=O)c1c(F)ccc(OC(CCC(O)CO)c2nc(-c3ccc(C(F)(F)F)cc3)c(Br)o2)c1F (single isomer, unassigned) [Compound 128, 3-((1-(5-bromo-4-(4-(trifluoromethyl)phenyl)oxazol-2-yl)-4,5-dihydroxypentyl)oxy)-2,6-difluorobenzamide (mixture of two diastereomeric pairs of enantiomers)] |  | B (activity>0.25 μg/mL-1.0 μg/mL) |
| C=CCc1oc(C(COC(C)=O)Oc2ccc(F)c(C(N)=O)c2F)nc1-c1ccc(C(F)(F)F)cc1 (stereo not shown) [Compound 63, 2-(5-allyl-4-(4-(trifluoromethyl)phenyl)oxazol-2-yl)-2-(3-carbamoyl-2,4-difluorophenoxy)ethyl acetate] | 1 to 16 µg/mL |  |
| NC(=O)c1c(F)ccc(OC(COC(=O)NCc2ccncc2)c2nc(-c3ccc(C(F)(F)F)cc3)c(Br)o2)c1F (stereo not shown) [Compound 167, 2-(5-bromo-4-(4-(trifluoromethyl)phenyl)oxazol-2-yl)-2-(3-carbamoyl-2,4-difluorophenoxy)ethyl (pyridin-4-ylmethyl)carbamate] | < 0.25 µg/mL |  |
| NC(=O)c1c(F)ccc(OC(CC(O)CO)c2nc(-c3ccc(C(F)(F)F)cc3)c(Br)o2)c1F (stereo not shown) [Compound 148, 3-(1-(5-bromo-4-(4-(trifluoromethyl)phenyl)oxazol-2-yl)-3,4-dihydroxybutoxy)-2,6-difluorobenzamide] |  | C (activity>1.0 μg/mL-16 μg/mL) |
| CC(=O)OCC(OC(C)=O)C(Oc1ccc(F)c(C(N)=O)c1F)c1nc(-c2ccc(C(F)(F)F)cc2)c(Br)o1 (stereo not shown) [Compound 219, 3-(5-bromo-4-(4-(trifluoromethyl)phenyl)oxazol-2-yl)-3-(3-carbamoyl-2,4-difluorophenoxy)propane-1,2-diyl diacetate] | > 16 µg/mL |  |

Source: patent publication US9511073B2, “Aromatic amides and uses thereof” (TAXIS Pharmaceuticals, Inc., priority 2011, dated 2016)
